Test results from article PMC9732360, “Discovery and structure of a widespread bacterial ABC transporter specific for ergothioneine” (Nature Communications, 2022).

Tests used:
EgtUA = EgtUA (Streptococcus pneumoniae, UniProt A0A0H2ZLL3)
LmEgtUC = target: T1, LmEgtUC (Listeria monocytogenes, UniProt Q8Y775); assay: intrinsic tyrosine fluorescence titration; type: binding; conditions: read-out: Ka (M^-1) (converted)
T1 construct: gene egtUBC; N-terminal His6-SUMO cleaved off; expressed in E. coli BL21(DE3); the lmo locus tag is of strain EGD-e, strain used printed as 10403S
Source text: intrinsic tyrosine fluorescence titration on LmEgtUC

SpEgtUC [1] = target: T2, SpEgtUC (Streptococcus pneumoniae, UniProt A0A0H2ZQB9, G244F); assay: biochemical
T2 construct: gene egtUBC

EfEgtUC = target: T3, EfEgtUC (Enterococcus faecalis, UniProt Q837Z8); assay: intrinsic tyrosine fluorescence titration; type: binding; conditions: read-out: Ka (M^-1) (converted)
T3 construct: gene egtUBC; N-terminal His6-SUMO cleaved off; expressed in E. coli BL21(DE3)
T3 sequence (Q837Z8 233-505): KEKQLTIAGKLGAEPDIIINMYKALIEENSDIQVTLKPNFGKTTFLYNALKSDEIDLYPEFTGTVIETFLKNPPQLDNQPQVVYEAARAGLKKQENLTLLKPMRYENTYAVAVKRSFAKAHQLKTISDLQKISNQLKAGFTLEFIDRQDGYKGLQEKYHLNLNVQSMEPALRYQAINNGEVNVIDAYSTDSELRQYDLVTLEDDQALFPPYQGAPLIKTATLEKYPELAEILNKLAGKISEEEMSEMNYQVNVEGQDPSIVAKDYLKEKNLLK
Source text: intrinsic tyrosine fluorescence titration on EfEgtUC

SaEgtUC = target: T4, SaEgtUC (Staphylococcus aureus, UniProt A0A0H2XK79); assay: intrinsic tyrosine fluorescence titration; type: binding; conditions: read-out: Ka (M^-1) (converted)
T4 construct: gene egtUBC; N-terminal His6-SUMO cleaved off; expressed in E. coli BL21(DE3)
T4 sequence (A0A0H2XK79 233-504): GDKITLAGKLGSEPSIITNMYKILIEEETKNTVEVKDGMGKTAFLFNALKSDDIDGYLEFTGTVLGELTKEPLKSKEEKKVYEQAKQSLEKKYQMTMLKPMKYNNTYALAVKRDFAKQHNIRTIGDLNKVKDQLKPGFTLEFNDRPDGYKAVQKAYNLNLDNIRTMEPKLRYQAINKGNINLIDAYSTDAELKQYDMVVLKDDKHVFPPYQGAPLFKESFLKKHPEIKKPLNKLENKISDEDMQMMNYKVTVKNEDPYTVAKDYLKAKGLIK
Source text: intrinsic tyrosine fluorescence titration on SaEgtUC

SpEgtUC [2] = target: T5, SpEgtUC (Streptococcus pneumoniae, UniProt A0A0H2ZQB9); assay: isothermal titration calorimetry; type: binding; conditions: read-out: Ka (M^-1) (converted)
T5 construct: gene egtUBC; N-terminal His6-SUMO cleaved off; expressed in E. coli BL21(DE3); monomer
Source text: isothermal titration calorimetry on SpEgtUC

SpEgtUCCTT = target: T6, SpEgtUCCTT (Streptococcus pneumoniae, UniProt A0A0H2ZQB9, G502V/L503C); assay: biochemical
T6 construct: gene egtUBC

SpEgtUC [3] = target: T7, SpEgtUC (Streptococcus pneumoniae, UniProt A0A0H2ZQB9, F293Y); assay: biochemical
T7 construct: gene egtUBC

SpEgtUC [4] = target: T8, SpEgtUC (Streptococcus pneumoniae, UniProt A0A0H2ZQB9, E375Q); assay: biochemical
T8 construct: gene egtUBC

SpEgtUC [5] = target: T9, SpEgtUC (Streptococcus pneumoniae, UniProt A0A0H2ZQB9, Y419F); assay: biochemical
T9 construct: gene egtUBC

SpEgtUC [6] = target: T5, SpEgtUC; assay: NMR chemical shift perturbation titration; type: binding; conditions: read-out: Ka (M^-1) (converted)
Source text: NMR chemical shift perturbation titration on SpEgtUC

T5 sequence (A0A0H2ZQB9 233-506): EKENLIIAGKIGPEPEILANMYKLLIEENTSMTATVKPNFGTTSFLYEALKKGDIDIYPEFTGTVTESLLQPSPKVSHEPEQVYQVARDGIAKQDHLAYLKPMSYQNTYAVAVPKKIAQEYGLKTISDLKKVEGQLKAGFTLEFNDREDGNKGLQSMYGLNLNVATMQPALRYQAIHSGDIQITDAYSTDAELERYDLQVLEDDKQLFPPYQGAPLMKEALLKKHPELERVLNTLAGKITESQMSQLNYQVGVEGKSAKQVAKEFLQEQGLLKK
T1 sequence (Q8Y775 231-504): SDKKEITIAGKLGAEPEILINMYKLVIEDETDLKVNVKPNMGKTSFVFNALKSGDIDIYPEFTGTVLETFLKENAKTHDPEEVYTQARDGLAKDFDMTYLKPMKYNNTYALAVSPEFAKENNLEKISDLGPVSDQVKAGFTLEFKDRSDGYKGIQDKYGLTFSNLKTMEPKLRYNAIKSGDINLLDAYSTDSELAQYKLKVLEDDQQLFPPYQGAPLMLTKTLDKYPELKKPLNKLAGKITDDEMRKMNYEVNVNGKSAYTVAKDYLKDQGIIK
T6 sequence (A0A0H2ZQB9 233-503 G502V/L503C): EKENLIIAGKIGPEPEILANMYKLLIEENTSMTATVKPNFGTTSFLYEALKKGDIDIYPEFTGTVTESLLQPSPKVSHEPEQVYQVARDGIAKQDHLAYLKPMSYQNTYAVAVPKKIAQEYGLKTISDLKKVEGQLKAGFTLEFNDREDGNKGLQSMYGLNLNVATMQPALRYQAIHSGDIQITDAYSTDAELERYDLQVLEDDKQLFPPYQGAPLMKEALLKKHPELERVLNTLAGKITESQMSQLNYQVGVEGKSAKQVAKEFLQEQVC
T7 sequence (A0A0H2ZQB9 233-506 F293Y): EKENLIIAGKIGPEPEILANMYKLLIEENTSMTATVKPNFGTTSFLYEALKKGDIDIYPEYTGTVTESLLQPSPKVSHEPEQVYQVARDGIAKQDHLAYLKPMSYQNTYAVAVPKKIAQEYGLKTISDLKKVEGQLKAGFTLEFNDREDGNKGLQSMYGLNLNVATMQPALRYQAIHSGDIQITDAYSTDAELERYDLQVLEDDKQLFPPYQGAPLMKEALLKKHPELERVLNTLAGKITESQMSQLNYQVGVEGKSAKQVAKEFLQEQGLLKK
Sequence of EgtUA (A0A0H2ZLL3 whole entry): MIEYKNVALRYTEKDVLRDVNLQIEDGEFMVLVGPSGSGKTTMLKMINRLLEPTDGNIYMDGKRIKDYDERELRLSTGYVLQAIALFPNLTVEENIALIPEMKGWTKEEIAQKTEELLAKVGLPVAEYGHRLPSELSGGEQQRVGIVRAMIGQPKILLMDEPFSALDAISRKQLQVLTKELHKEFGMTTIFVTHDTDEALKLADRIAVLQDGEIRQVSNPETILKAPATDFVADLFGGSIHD
T9 sequence (A0A0H2ZQB9 233-506 Y419F): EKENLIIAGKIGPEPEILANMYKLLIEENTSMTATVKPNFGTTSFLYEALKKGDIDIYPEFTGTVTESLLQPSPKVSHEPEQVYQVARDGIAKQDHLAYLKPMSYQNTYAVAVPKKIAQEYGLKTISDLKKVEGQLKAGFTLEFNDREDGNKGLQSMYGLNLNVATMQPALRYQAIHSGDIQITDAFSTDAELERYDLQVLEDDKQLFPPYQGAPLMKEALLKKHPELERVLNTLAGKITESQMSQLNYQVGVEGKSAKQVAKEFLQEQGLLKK
T8 sequence (A0A0H2ZQB9 233-506 E375Q): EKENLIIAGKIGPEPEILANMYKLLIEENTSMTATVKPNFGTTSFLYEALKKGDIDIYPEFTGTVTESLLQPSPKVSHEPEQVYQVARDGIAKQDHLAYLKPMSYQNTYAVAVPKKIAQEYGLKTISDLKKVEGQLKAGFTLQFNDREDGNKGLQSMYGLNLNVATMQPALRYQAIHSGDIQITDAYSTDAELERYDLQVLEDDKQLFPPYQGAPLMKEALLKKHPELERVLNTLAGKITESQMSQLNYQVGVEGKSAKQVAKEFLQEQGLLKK
T2 sequence (A0A0H2ZQB9 233-506 G244F): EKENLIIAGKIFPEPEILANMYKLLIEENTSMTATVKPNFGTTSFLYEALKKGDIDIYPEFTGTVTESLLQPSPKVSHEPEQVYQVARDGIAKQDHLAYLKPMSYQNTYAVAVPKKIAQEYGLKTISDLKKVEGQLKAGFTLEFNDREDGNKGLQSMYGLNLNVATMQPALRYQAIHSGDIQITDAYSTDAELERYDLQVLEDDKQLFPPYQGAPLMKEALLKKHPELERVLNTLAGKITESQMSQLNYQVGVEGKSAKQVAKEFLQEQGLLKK

## Nc1ncnc2c1ncn2[C@@H]1O[C@H](COP(=O)(O)OP(=O)(O)OP(=O)(O)O)[C@@H](O)[C@H]1O [ATP]
EgtUA
  in vitro ATPase activity: ATPase activity of WT vs. mutant EgtUA proteins in vitro

## C[N+](C)(C)[C@@H](Cc1c[nH]c(=S)[nH]1)C(=O)[O-] [ET, L-ergothioneine]
LmEgtUC
  Kd: 0.0556 µM
SpEgtUC [1]
  Kd: 5 µM
EfEgtUC
  Kd: 0.0625 µM
SaEgtUC
  Kd: 0.217 µM
SpEgtUC [2]
  Kd: 0.0588 µM
SpEgtUCCTT
  Kd: 0.0526 µM
SpEgtUC [3]
  Kd: 0.5 µM
SpEgtUC [4]
  Kd: 25 µM
SpEgtUC [5]
  Kd: 0.625 µM

## C[N+](C)(C)CC(=O)[O-] [GB, glycine betaine]
SpEgtUC [6]
  Kd: > 33300 µM

## C[N+](C)(C)[C@@H](Cc1cnc[nH]1)C(=O)[O-] [HER, L-hercynine]
SpEgtUC [6]
  Kd: 1670 µM
